The values that follow come from patent US11517575B2, “Use of minaprine to reduce tumor growth” (Institut Gustave-Roussy, priority 2019, dated 2022).

One test relates to HCT116 cells. As to the kind of experiment: Screening of chemical libraries for IR-mediated cellular cannibalism (imaging flow cytometry, confocal validation). Particulars: 8 Gy irradiated HCT116 cells, 10 μM compound, 24 h culture. In kind it is cell-based, human. The method, then:
FIG. 4 Identification of cannibalism modulators triggered by ionizing radiation. Compounds from the Prestwick (A) and CEA (F) libraries were tested for their capacities to induce cellular cannibalism after ionizing radiation. Cannibal cells were detected after homotypic cultures of 8 gray γ-irradiation HCT116 cells in the presence or absence of 10 μM of the Prestwick (A) and CEA […] library compounds. Each dot represents one compound. Representative images are shown in (B, G). (C, H) HCT116 cells were treated with the indicated drugs. After 24 h of treatment, cell death was monitored by staining with 3,3 dihexyloxacarbocyanine iodide (DiOC6(3)) and PI^+, and the percentage of dying (DiOC6(3)^low PI^−, open bars) and dead (DiOC6(3)^low PI^+, closed bars) cells was determined by cytofluorometry. Validation of the cannibalism inducers by fluorescent microscopy. Representative images (D, I) and quantification (E, J) are shown. Results are means s.e.m. of triplicate determinations.
Untreated HCT116 cells were labeled with CMFDA (green fluorescence, CMFDA^+) or CMTMR, (red fluorescence, CMTMR) and treated HCT116 cells with CMFDA (green fluorescence, CMFDA^+). The following cell mixtures were performed: untreated CMTMR^+ HCT116 cells were mixed with untreated CMFDA^+ HCT116 cells, or untreated CMTMR^+ HCT116 cells were mixed with treated CMFDA^+ HCT116 cells. Then, cells were co-cultured during 24 hours in the presence or absence of the pharmacological inhibitor of ROCK, Y27632 (30 μM), the pan-caspase inhibitor, Z-VAD-fmk (ZVAD, 100 μM), the inhibitor of caspase-1, Ac-YVAD-cmk (YVAD, 100 μM), the necroptosis inhibitor, Necrostatin-1 (NEC1, 30 μM), the inhibitor of the vacuolar type H(+)-ATPase (V-ATPase) inhibiting autophagy, Bafilomycin A1 (BafA1, 50 nM), the inhibitor of Cdks with an anti-mitotic activity, Roscovitine (Rosco, 10 μM). After 24 hours of co-culture, both detached and adherent cells were collected and stained with Hoechst […] (10 μg/mL) during 1 hour at 37° C. in warmed complete medium. To detect phosphatidylserine (PS) exposure and plasma membrane permeability, labeled HCT116 cells were successively incubated with Biotin-AnnexinV (BD Pharmingen) as recommended by manufacturer, […] BV786-Streptavidin (BD Biosciences) and 3 μM DRAQ7 (BioStatus) during 15 minutes at 25° C. After washing with PBS solution, samples were immediately analyzed using an imaging flow cytometer FlowSight® (Amnis®, part of EMD Millipore). Data were acquired at a 20× magnification, using INSPIRE software. The 405 nm, 488 nm, and 561 nm lasers were used for excitation. Brightfield, Annexin V-BV786, DRAQ7, CMFDA, CMTMR and Hoechst […] stainings were detected using respectively channels for 420-480 nm, 745-800 nm, 642-745 nm, 480-560 nm, 595-642 nm and 430-505 nm. At least 1000 events of cells per sample were analyzed. Additional single-labeled controls were prepared to normalize fluorescent signal across different channels. Acquired data were analyzed using the IDEAS analysis software (v6.1; Merck-Millipore). Gating strategy was the following. Cells were gated for focused cells using the Gradient RMS feature. Cells were gated for single cells using the aspect ratio and area features. For the cannibalism detection, cells were gated in the double positive CMFDA^+ and CMTMR^+ staining.
To detect PS exposure, plasma membrane permeability and cell cycle progression, cells were after co-culture sequentially labeled with specific fluorescent probes (such as FITC-conjugated AnnexinV, propidium iodide, and Hoechst 33342) and analyzed by flow cytometry. Both detached and adherent cells were collected and stained with Hoechst […] (10 μg/ml) during 1 hour at 37° C. in warmed complete medium. After washing with PBS, HCT116 cells were suspended in 1× binding buffer supplemented with fluorescein isothiocyanate (FITC)-conjugated Annexin V (BD Biosciences) and propidium iodide (PI, 1 μg/mL) (Sigma), as per manufacturer's instructions. […]

The next test has as its system CT26 cells. Description: Anti-tumor vaccination assay, CT26 cells in BALB/c mice. In kind it is in vivo, mouse. Particulars: for frequency of mice showing a protective response: 8 Gy + 10 μM compound 24 h. As to the method:
FIG. 5. Identification of cannibalism modulators as immunogenic cell death inducers. MCA205 (A) or CT26 (E, I, M, Q) cells were treated with the indicated drugs. After 24 h of coculture with the indicated treatment, cell death was monitored by staining DiOC6(3) and PI, and the percentage of dying (DiOC6(3)^low PI^−, open bars) and dead (DiOC6(3)^low PI^+, closed bars) cells was determined by cytofluorometry. (B-D) MCA205 cells or (F-H, J-L, N-P, R-T) CT26 cells cocultured after x irradiation with the indicated compounds were inoculated subcutaneously into the right flank of […] or BALB/c mice, respectively. Seven days later, the mice were rechallenged with live cells injected into the opposite flank, and tumor growth was monitored (five mice per group).
FIG. 6. Tumor vaccination experiments. CT26 cells were treated for 24 hours with 10 μM VP331 (A, F, K), 10 μM Minaprine (B, G, L), 10 μM Lopa87 (C, H, M), 10 μM SG6163F (D, I, N), 10 μM Azaguanine-8 (8-aza) (E, J, O) alone or combined with 8 Gy ionizing radiation and inoculated (s.c.) into immunocompetent BALB/c mice, which were rechallenged at the opposite flank 7 days later with the same cancer cells. The percentage of tumor-free mice was evaluated three times a week for the following 38 days. Percentage of total tumor free mice (A-E), tumor free-mice at the first injection site (F to J, P) or at the second injection site (K to O, Q) are shown. (*P<0.05, **P<0.01, ***P<0.001, two-way ANOVA).
The combination of IRCCE with IR induces efficient antitumor immunity. Considering that immunogenic cell death (ICD) inducers were identified (such as Digoxin, Digitoxin, Lanatoside C or Doxorubicin hydrochloride)^3, 4, 48-51) as IRCCE, the ability of these compounds to induce an antitumor immunity after radiotherapy was evaluated. First, a preclinical approaches was developed to study the immunological effects of IRCCE on two mouse models of carcinoma (colon CT26 carcinoma and fibrosarcoma MCA205). Initially, the ability of the combination of IRCCE+IR to trigger a specific anti-tumor immune response was appreciated using immunocompetent mice through anti-tumor vaccination assays. According to previously published studies^52, the injection of cancer cells succumbing to an immunogenic cell death (ICD) into immunocompetent mice must elicit a protective immune response that is specific for tumor antigens. Thus, 3×10^5 MCA205 cells were first treated with 10 μM of SG6163F for 24 hours. Then, treated cells were inoculated subcutaneously in 200 μl PBS into the lower flank of 8-week-old female C57BL/6 mice. One week later, 3×10^4 untreated control cells were inoculated into the contralateral flank of mice. Tumors were evaluated weekly using a common caliper. Animals bearing tumors that exceeded 20-25% body mass were euthanatized. […] Then, 3×10^6 CT26 cells were irradiated with 8 Gy in presence of 10 μM of SG6163F (FIGS. 5E and 5F), VP331 (FIGS. 5I and 5J), Minaprine dihydrochloride (FIGS. 5M and 5N) or LOPA87 (FIGS. 5Q and 5R) for 24 hours. Then, cells were inoculated as previously described subcutaneously in […] into the lower flank of 8-week-old female BALB/c mice. One week later, 5×10^5 untreated control cells were inoculated into the contralateral flank of mice and tumors were evaluated weekly using a common caliper. As previously mentioned, animals bearing tumors that exceeded 20-25% body mass were euthanatized. The percentage of dying cells in each condition was evaluated by determining with DiOC(6)3/IP staining (FIGS. 5E, 5I, 5M and 5Q). Finally, the ability of these compounds to repress the growth of cancer cells that have been injected 7 days after injection of irradiated and treated cancer cells was appreciated.
A second anti-tumor vaccination assay was done on CT26 mouse models of carcinoma as previously described. […]

[1] abbreviates: second assay: CT26 cells, rechallenge 7 days later.
Where [2] appears, read: first assay: CT26 cells, rechallenge one week later.

With `Nc1nc2[nH]nnc2c(=O)[nH]1` [Azaguanine-8], the “enhancement of IR-mediated cellular cannibalism” value (“enhancement” below) with HCT116 cells is “efficient cellular cannibalism enhancer”. In addition, the “protective response after injection of cancer cells” value in the test with CT26 cells (second assay: CT26 cells treated with 10 μM compound alone (no IR)) is “induce an increase of protective response”. Moreover, in the test with CT26 cells (setting [1]), the “frequency of mice showing a protective response” value (“frequency” for short) is given as “Significant increases in the frequency of mice showing a protective response”. Take `C[C@H]1O[C@@H](O[C@H]2[C@@H](O)C[C@H](O[C@H]3[C@@H](O)C[C@H](O[C@H]4CC[C@@]5(C)[C@H](CC[C@@H]6[C@@H]5CC[C@]5(C)[C@@H](C7=CC(=O)OC7)CC[C@]65O)C4)O[C@@H]3C)O[C@@H]2C)C[C@H](O)[C@@H]1O` [Digitoxin]: in the test with HCT116 cells, the “enhancement” value is reported as “efficient cellular cannibalism enhancer”. On the same count and under the same terms, the result for `C[C@H]1O[C@@H](O[C@H]2[C@@H](O)C[C@H](O[C@H]3[C@@H](O)C[C@H](O[C@H]4CC[C@@]5(C)[C@H](CC[C@@H]6[C@@H]5C[C@@H](O)[C@]5(C)[C@@H](C7=CC(=O)OC7)CC[C@]65O)C4)O[C@@H]3C)O[C@@H]2C)C[C@H](O)[C@@H]1O` [Digoxin] reads “efficient cellular cannibalism enhancer”. The same measure, in the same setting: next, `COc1cccc2c1C(=O)c1c(O)c3c(c(O)c1C2=O)C[C@@](O)(C(=O)CO)C[C@@H]3O[C@H]1C[C@H](N)[C@H](O)[C@H](C)O1.Cl` [Doxorubicin hydrochloride]: “efficient cellular cannibalism enhancer”.

On to `CC(C(=O)O)c1ccc(-c2ccccc2)c(F)c1` (stereo not shown) [Flurbiprofen], for which, in the test with HCT116 cells, the “enhancement” value is “efficient cellular cannibalism enhancer”.

With `CN(C)c1ccc(-c2cc(=O)[nH]c(-c3ccccc3)n2)cc1` [LOPA87], the “enhancement” value in the test with HCT116 cells was “efficient cellular cannibalism enhancer”. Besides, the “frequency” value with CT26 cells (setting [2]) is “significant increase in the frequency of mice showing a protective response”; with CT26 cells (setting [1]) it was “Significant increases in the frequency of mice showing a protective response”. Consider `CC(=O)O[C@H]1C[C@H](O[C@H]2[C@@H](O)C[C@H](O[C@H]3[C@@H](O)C[C@H](O[C@H]4CC[C@@]5(C)[C@H](CC[C@@H]6[C@@H]5C[C@@H](O)[C@]5(C)[C@@H](C7=CC(=O)OC7)CC[C@]65O)C4)O[C@@H]3C)O[C@@H]2C)O[C@H](C)[C@H]1O[C@@H]1O[C@H](CO)[C@@H](O)[C@H](O)[C@H]1O` [Lanatoside C], for which, in the test on HCT116 cells, the “enhancement” value is recorded as “efficient cellular cannibalism enhancer”. On the same count and under the same terms, the result for `CN1CCc2c(c3ccccc3n2Cc2ccccc2)C1` [Mebhydroline 1,5-naphtalene-disulfonate] reads “efficient cellular cannibalism enhancer”.

`COc1cc(O)ccc1/C=N/c1ccccc1C(=O)Nc1ccccc1` [RN-1-026]: the “enhancement” value in the test on HCT116 cells is reported as “efficient cellular cannibalism enhancer”. The same measure, in the same setting: the result for `CN1c2ccccc2C(=O)N(c2ccccc2)C1c1ccc(-c2csc(CO)n2)s1` (stereo not shown) [VP43] reads “efficient cellular cannibalism enhancer”. As for `COc1ccc(C)cc1/C=N/[C@@H]1C[C@@H]2C[C@H]([C@H]1C)C2(C)C` [VP331], the “enhancement” value in the test on HCT116 cells is on record as “efficient cellular cannibalism enhancer”. Further, the “frequency” value in the test with CT26 cells (setting [2]) was “significant increase in the frequency of mice showing a protective response”; in the test with CT26 cells (setting [1]), “Significant increases in the frequency of mice showing a protective response”.

`O=C(N/N=C/c1ncc[nH]1)NC12CC3CC(CC(C3)C1)C2` [VP450]: the “enhancement” value in the test with HCT116 cells is listed as “efficient cellular cannibalism enhancer”. Take Myricetin: the “enhancement” value in the test on HCT116 cells was “efficient cellular cannibalism enhancer”.
